Data on ten substances can be found in patent publication US20220259593A1, “CONTROL OF MAMMALIAN GENE DOSAGE USING CRISPR” (The Regents of the University of California, priority 2019, published 2022).

For data set [1], the system named is K562 CRISPRi cells. The data set is described as follows: Perturb-seq pooled growth measurement (sgRNA counts, growth phenotype γ, relative activity). Conditions: γ relative to perfectly matched sgRNA (_00) of the same gene, day 10. Format: cell-based, human.
Data set [2] deals with K562 CRISPRi cells. Described as above. It counts as cell-based, human. The following applies: for gamma_day5 / gamma_day10: pooled growth phenotype γ of the Perturb-seq sgRNA; for gamma_day5: day 5, K562 CRISPRi cells; for gamma_day10: day 10, K562 CRISPRi cells; for relative_activity_day5: γ relative to perfectly matched sgRNA (_00) of the same gene, day 5. A digest of the protocol:
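sgRNA abundance was sequenced from genomic DNA of the same transduced population sampled on days two, seven and twelve. Phenotype γ compares normalized day seven and twelve counts with day two. Day-seven values (five days of growth) define relative sgRNA activity.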

Take “SEC61A1_ −_127771295.23-P1_00 (guide GGCACTGACGTGTCTCTCGG; listed as DNA, chemistry not fully specified)”: the relative_activity_day10 in the data set with K562 CRISPRi cells [1] is reported as 1. Moreover, in the data set on K562 CRISPRi cells [2], the gamma_day5 is reported as −0.92, the gamma_day10 is listed as −0.5629 and the relative_activity_day5 stood at 1.

In the data set with K562 CRISPRi cells [1], “SEC61A1_ −_127771295.23-P1_01 (guide GGCACTGTCGTGTCTCTCGG; listed as DNA, chemistry not fully specified)” yielded a relative_activity_day10 of 0.5184. In the data set on K562 CRISPRi cells [2], the gamma_day5 was −0.4191, the gamma_day10 is listed as −0.2918 and the relative_activity_day5 came out at 0.4556.

In the case of “SEC61A1_ −_127771295.23-P1_02 (guide GGCGCTGACGTGTCTCTCGG; listed as DNA, chemistry not fully specified)”, the relative_activity_day10 with K562 CRISPRi cells [1] is 0.7203. Also, in the data set on K562 CRISPRi cells [2], the gamma_day5 is listed as −0.6451, the gamma_day10 is reported as −0.4055 and the relative_activity_day5 stood at 0.7012.

Substance “SEC61A1_ −_127771295.23-P1_03 (guide GGTACTGACGTGTCTCTCGG; listed as DNA, chemistry not fully specified)” gave a relative_activity_day10 with K562 CRISPRi cells [1] of 0.6074. In the data set with K562 CRISPRi cells [2], this substance came in with a gamma_day5 of −0.5031, a gamma_day10 of −0.3419 and a relative_activity_day5 of 0.5469.

As to “SEC61A1_ −_127771295.23-P1_04 (guide GGCACTGAAGTGTCTCTCGG; listed as DNA, chemistry not fully specified)”, in the data set with K562 CRISPRi cells [1], the relative_activity_day10 was found to be 0.2049. In the data set on K562 CRISPRi cells [2], this substance returned a gamma_day5 of −0.1539, a gamma_day10 of −0.1153 and a relative_activity_day5 of 0.1673.

As to “TUBB_ + _30688126.23-P1_00 (guide GCGGCAGGAAGGTTCTGAGA; listed as DNA, chemistry not fully specified)”, the relative_activity_day10 in the data set on K562 CRISPRi cells [1] is given as 1. In the data set with K562 CRISPRi cells [2], the gamma_day5 is on record as −0.897, the gamma_day10 was −0.6999 and the relative_activity_day5 was determined as 1.

“TUBB_ + _30688126.23-P1_01 (guide GCAGCAGGAAGGTTCTGAGA; listed as DNA, chemistry not fully specified)” displayed a relative_activity_day10 in the data set with K562 CRISPRi cells [1] of 0.8743. In the data set with K562 CRISPRi cells [2], the gamma_day5 is −0.926, the gamma_day10 is on record as −0.6119 and the relative_activity_day5 came to 1.032.

On to “TUBB_ + _30688126.23-P1_03 (guide GCGGCAGCAAGGTTCTGAGA; listed as DNA, chemistry not fully specified)”, for which, in the data set on K562 CRISPRi cells [1], the relative_activity_day10 stood at 0.7085. Moreover, in the data set on K562 CRISPRi cells [2], the gamma_day5 is −0.6926, the gamma_day10 is recorded as −0.4959 and the relative_activity_day5 is listed as 0.7721.

“TUBB_ + _30688126.23-P1_06 (guide GCGGCAGGACGGTTCTGAGA; listed as DNA, chemistry not fully specified)” returned a relative_activity_day10 in the data set on K562 CRISPRi cells [1] of 0.7922. Besides, in the data set with K562 CRISPRi cells [2], the gamma_day5 is −0.7308, the gamma_day10 was −0.5544 and the relative_activity_day5 stood at 0.8147.

With “TUBB_ + _30688126.23-P1_10 (guide GCGGCAGGAAGGTTCAGAGA; listed as DNA, chemistry not fully specified)”, the relative_activity_day10 in the data set on K562 CRISPRi cells [1] was 0.2073. Further, in the data set with K562 CRISPRi cells [2], the gamma_day5 is −0.1978, the gamma_day10 is −0.1451 and the relative_activity_day5 stood at 0.2205.
